What was measured:
cutaneous herpes type 1 = conditions: trisodium salt in topical preparations according to examples 15, 16 and 17; preliminary experiments
[1] = design: species or system Cynomolgus monkeys; conditions: cynomolgus monkey, in vivo
Method: Phosphonoformic acid, also denoted PFA and phosphonoacetic acid, also denoted PAA were used in the form of their trisodium and disodium salt, respectively. The following equimolar compositions of the two test compounds were used: […]
Two adult male Cynomolgus monkeys were treated once daily for 7 days with PFA or PAA in Arlatone cream. Treatment was done both by topical application of 0.2 ml cream on an area of 3×7 cm on the upper part of the arms and by application of 0.2 ml of cream on the penis and the adjacent skin. During application of cream, the animals were lightly anaesthetized with Ketalar®, given intramuscularly. All applications were 0.2 ml each on day 6/3, 7/3, 8/3, 9/3, 10/3, 11/3 and 12/3 1978.

Acute toxicity in mice = test: Acute toxicity in mice; design: species or system male mice of NMRI strain; conditions: mouse, in vivo, ip, as sodium salt, male NMRI mice
Method: Phosphonoformic acid was tested for acute toxicity in mice. The compound (as its sodium salt) was given as solution i.p. in doses of 250, 500, 1000, 2000 and 4000 μmol/kg. Groups of 4 male mice of NMRI strain weighing 18.5-20.5 g were used for each dose.

[2] = test system: reverse transcriptase from AMV; test: Cell-free reverse transcriptase inhibition, AMV; assay type: biochemical, avian myeloblastosis virus
Method: Reverse transcriptase from various retroviruses have been tested in cell-free assays for inhibition by phosphonoformic acid and phosphonoacetic acid. The assay conditions have been described by Collaborative Research, Inc, 1365 Main Street, Waltham, Mass., USA "Assay kit for mammalian viral reverse transcriptase". BLV and VV were prepared in this laboratory and all other viruses and viral enzyme were obtained from Dr. K Nilsson, Department of Pathology, University of Uppsala and from Boehringer Mannheim, Germany. Phosphonoformic acid (PFA) and phosphonoacetic acid (PAA) were added at pH 7.2 to the reaction mixtures at the start of the reaction.
Rauscher murine leukemia virus; RMuLV, visna virus; VV, avian myeloblastosis virus; AMV, bovine leukemia virus; BLV, baboon endogenous virus; BaEV, simian sarcoma virus; SSV.

[3] = biological target: calf thymus DNA dependent RNA polymerase fraction A (DCA) (Bos taurus, UniProt A6QLS0+E1BIX2); test: Inhibition of calf thymus DNA dependent RNA polymerase fraction A; assay type: biochemical
Method: Polymerases, nucleic acid template nucleoside triphosphates, of which guanosine triphosphate is tritium-labelled, salt and buffer are mixed at 0° C. in a total volume of 125 μl (for herpes DNA polymerase, see F. below). The concentrations of the nucleoside triphosphates UTP (uridine triphosphate), CTP (cytidinetriphosphate), GTP (guanosinetriphosphate) and ATP (adenosinetriphosphate) were generall 400, 400, 400, and 2000 μM, respectively. The test compound is also added in various concentrations to the mixture obtained. A standard mixture without test compound is also prepared using the same amounts of the ingredients. The enzyme reaction, i.e. synthesis of nucleic acid, is started by incubating the mixture at 37° C. For influenza RNA polymerases the temperature is 33° C. The reaction is allowed to proceed for 60 minutes in the assay of influenza and Micrococcus polymerases. […] The incorporation of labelled monomer into trichloroacetic acid insoluble nucleic acid product was measured in the following way. […] After drying the discs are measured for radioactivity in a liquid scintillation counter. The difference in radioactivity between samples with and without added compound is used to calculate the inhibition of the polymerase activity. The inhibition is expressed as percentage inhibition using the radioactivity of the standard sample as basis. […]

[4] = test system: herpes simplex type 2 patient isolates; test: Herpes simplex type 2 plaque reduction assay on SIRC monolayers; assay type: cell-based; conditions: Human alphaherpesvirus 2
Method: (§1) The inhibition of influenza virus and herpes virus by phosphonoformic acid has been measured as plaque reaction according to the following procedures.
(§2) The plaque reduction assay for herpes simplex type 1 was performed on GMK (Green Monkey Kidney) cells as described by Ejereito et el., J. Gen. Virol. 2 (1968) 357. Monolayers on 5 cm petri dishes were used and after virus adsorption phosphonoformic acid was added in the medium.
I. Inhibition by phosphonoformic acid of herpes simplex type 2 plaque
The plaque reduction assay for herpes simplex type 2 was performed in the same way as in experiment H. The results are shown in Table 9.

herpes simplex type 1 = test: Herpes simplex type 1 plaque reduction assay on GMK monolayers; assay type: cell-based; conditions: mean of three experiments
Method: as §1
H. Inhibition by phosphonoformic acid of herpes simplex type 1 plaque
as §2

[5] = test system: YBA solid tumors (Moloney virus); test: Survival of CBA mice bearing YBA solid tumors; assay type: in vivo; conditions: 0.5% in the drinking water, pH 7.2; FIG. 3
Method: The inhibition of reverse transcriptase by phosphonoformic acid (PFA) has prompted an investigation of the effect of PFA on animals with tumors where retroviruses are implicated. Ehrlich ascites tumors (Friend virus) in NMRI mice and YBA solid tumors (Moloney virus) in CBA mice have been used.
NMRI mice were inoculated intraperitoneally with 0.1 ml of a 1/10 dilution of ascitic fluid from a mouse with an Ehrlich ascites tumor. Nine mice were given intraperitoneally 100 mg/kg of PFA per day as a 2% solution at pH 7.2, and 9 mice were treated with 0.95% NaCl ip. CBA mice were inoculated with 7×10^6 cells subcutaneously in the flank. Fifteen CBA mice were given 0.5% PFA at pH 7.2 in the drinking water and fifteen water without addition.

calf thymus DNA dependent RNA polymerase fraction A (DCA), sequence (E1BIX2 entry or part of it): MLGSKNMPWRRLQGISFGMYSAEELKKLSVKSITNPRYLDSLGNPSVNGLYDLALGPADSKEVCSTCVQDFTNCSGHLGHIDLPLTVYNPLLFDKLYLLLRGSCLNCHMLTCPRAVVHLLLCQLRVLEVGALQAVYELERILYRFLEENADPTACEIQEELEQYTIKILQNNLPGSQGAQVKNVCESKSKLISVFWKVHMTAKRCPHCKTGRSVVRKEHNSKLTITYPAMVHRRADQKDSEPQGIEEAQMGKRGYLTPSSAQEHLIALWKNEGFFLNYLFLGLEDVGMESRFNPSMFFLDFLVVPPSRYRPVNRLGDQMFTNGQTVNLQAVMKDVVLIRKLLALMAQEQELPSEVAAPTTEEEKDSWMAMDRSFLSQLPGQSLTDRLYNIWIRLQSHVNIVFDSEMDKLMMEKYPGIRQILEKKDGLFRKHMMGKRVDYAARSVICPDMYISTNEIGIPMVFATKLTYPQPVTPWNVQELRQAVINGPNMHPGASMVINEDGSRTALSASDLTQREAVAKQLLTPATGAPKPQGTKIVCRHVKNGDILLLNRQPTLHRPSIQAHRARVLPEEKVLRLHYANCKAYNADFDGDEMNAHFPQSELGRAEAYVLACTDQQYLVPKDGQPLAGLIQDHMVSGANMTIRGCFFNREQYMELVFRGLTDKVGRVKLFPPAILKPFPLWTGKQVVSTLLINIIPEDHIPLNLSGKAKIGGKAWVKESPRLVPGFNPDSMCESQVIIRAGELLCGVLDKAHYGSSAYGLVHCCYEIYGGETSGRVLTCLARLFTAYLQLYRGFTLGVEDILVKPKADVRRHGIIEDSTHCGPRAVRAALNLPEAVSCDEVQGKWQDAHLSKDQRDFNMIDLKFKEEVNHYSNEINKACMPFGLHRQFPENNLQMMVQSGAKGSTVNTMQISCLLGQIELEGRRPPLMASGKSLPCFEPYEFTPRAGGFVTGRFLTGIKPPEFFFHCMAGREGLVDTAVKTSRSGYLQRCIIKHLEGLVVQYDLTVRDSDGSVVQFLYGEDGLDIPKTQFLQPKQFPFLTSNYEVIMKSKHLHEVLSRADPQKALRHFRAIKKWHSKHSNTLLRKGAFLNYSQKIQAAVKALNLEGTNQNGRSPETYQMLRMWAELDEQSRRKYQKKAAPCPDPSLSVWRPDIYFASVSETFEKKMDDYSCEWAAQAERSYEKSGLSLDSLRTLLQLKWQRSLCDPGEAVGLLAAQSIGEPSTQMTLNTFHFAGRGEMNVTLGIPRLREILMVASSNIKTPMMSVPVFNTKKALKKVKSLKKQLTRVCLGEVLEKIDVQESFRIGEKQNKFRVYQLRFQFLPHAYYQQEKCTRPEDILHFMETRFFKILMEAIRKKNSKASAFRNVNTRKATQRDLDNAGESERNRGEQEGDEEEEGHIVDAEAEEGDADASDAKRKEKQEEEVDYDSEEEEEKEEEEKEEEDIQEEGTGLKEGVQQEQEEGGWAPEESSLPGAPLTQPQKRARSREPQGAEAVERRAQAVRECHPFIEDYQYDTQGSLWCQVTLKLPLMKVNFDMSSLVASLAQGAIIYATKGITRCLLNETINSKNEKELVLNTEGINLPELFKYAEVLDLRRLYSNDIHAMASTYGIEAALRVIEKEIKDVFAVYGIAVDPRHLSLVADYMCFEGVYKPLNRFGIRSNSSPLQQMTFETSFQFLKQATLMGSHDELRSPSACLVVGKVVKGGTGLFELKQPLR
calf thymus DNA dependent RNA polymerase fraction A (DCA), sequence (O15160 whole entry, further chain): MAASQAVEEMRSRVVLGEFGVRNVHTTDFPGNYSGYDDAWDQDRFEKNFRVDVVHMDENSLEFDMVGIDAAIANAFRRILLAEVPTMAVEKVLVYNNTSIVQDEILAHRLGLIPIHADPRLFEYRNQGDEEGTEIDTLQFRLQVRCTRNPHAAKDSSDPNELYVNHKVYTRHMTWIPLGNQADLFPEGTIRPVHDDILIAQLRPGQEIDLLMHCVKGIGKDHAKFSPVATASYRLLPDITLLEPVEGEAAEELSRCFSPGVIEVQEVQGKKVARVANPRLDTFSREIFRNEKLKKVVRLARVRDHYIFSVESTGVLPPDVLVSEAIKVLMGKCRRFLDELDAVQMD
calf thymus DNA dependent RNA polymerase fraction A (DCA), sequence (Q9P1U0 whole entry, further chain): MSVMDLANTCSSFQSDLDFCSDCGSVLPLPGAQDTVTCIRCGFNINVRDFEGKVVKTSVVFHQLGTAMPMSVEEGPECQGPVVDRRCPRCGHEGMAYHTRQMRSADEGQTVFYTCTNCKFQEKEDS
calf thymus DNA dependent RNA polymerase fraction A (DCA), sequence (A6QLS0 entry or part of it): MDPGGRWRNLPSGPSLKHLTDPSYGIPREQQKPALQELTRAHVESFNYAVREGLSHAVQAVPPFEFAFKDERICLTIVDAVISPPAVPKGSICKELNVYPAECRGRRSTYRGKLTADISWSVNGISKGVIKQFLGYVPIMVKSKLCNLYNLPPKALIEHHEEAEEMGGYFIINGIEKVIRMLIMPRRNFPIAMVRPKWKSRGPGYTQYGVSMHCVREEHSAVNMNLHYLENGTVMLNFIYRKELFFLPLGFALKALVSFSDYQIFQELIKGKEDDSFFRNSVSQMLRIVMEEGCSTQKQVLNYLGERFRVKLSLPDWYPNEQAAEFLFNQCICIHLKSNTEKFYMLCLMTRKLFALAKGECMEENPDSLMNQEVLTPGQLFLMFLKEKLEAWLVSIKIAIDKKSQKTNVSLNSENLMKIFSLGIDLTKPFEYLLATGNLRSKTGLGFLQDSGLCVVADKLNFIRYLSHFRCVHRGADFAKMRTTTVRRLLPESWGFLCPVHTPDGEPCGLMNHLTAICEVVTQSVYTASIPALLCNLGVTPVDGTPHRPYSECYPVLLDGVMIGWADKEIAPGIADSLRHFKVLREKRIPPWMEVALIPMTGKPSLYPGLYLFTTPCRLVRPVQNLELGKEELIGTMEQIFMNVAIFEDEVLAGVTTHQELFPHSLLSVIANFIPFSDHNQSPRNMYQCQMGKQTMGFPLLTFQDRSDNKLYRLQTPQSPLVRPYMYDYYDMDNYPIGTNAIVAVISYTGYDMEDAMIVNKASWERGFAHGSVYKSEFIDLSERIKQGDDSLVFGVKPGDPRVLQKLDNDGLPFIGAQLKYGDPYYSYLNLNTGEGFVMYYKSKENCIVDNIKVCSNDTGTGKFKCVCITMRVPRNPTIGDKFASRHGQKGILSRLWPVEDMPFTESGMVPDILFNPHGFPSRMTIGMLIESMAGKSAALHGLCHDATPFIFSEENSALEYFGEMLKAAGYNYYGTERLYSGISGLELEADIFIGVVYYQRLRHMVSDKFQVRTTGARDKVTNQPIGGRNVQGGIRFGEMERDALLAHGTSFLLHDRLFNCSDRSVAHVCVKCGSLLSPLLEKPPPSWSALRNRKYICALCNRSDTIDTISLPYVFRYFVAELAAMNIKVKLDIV
calf thymus DNA dependent RNA polymerase fraction A (DCA), sequence (Q3B726 whole entry, further chain): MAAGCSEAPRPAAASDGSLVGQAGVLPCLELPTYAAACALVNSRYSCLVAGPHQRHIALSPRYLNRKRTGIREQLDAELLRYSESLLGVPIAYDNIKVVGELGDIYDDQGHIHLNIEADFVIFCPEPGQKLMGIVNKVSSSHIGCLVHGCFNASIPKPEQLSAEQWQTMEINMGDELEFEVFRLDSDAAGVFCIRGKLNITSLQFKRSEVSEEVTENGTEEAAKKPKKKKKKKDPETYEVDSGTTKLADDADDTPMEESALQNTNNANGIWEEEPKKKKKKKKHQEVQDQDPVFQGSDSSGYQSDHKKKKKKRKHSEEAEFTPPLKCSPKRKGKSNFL
calf thymus DNA dependent RNA polymerase fraction A (DCA), sequence (P0DPB6 whole entry, further chain): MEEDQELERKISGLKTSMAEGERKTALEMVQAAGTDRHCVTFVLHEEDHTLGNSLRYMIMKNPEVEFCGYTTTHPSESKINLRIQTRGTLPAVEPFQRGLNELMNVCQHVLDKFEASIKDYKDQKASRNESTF

SMILES: O=C(O)P(=O)(O)O [phosphonoformic acid]
- therapeutic effect (cutaneous herpes type 1): has a therapeutic effect
- Result (skin irritation), area of application penis [1]: No symptoms
- Result (skin irritation), area of application upper arm [1]: No symptoms
- LD50 (Acute toxicity in mice): 2000 to 4000 µmol/kg
- Percent inhibition ([2]; 10 μM, endogenous template): 15%
- Percent inhibition ([2]; 10 μM, purified enzyme, (rA)n.(dT)10): 45%
- Percent inhibition ([2]; 10 μM, template/primer (rA)n.(dT)10): 43%
- Percent inhibition ([2]; 100 μM, endogenous template): 49%
- Percent inhibition ([2]; 100 μM, purified enzyme, (rA)n.(dT)10): 96%
- Percent inhibition ([2]; 100 μM, template/primer (rA)n.(dT)10): 94%
- Percent inhibition ([2]; 500 μM, endogenous template): 70%
- Percent inhibition ([2]; 500 μM, purified enzyme, (rA)n.(dT)10): > 99%
- Percent inhibition ([2]; 500 μM, template/primer (rA)n.(dT)10): 99%
- inhibition at 500 µM [3]: -3%
- inhibition at 500 µM [4]: 99.9%
- inhibition at 1 µM (herpes simplex type 1; Human alphaherpesvirus 1, 1 μM): 0%
- inhibition at 15 µM (herpes simplex type 1; Human alphaherpesvirus 1, 15 μM): 50%
- inhibition at 100 µM (herpes simplex type 1; Human alphaherpesvirus 1, 100 μM): 90%
- survival of mice inoculated with YBA cells [5]: increased survival

From US4771041A, “Method for combating virus infection” (priority 1976, dated 1988)
